Measured values taken from patent publication US9206200B2, “N-linked lactam M1 receptor positive allosteric mogulators” (Merck Sharp & Dohme Corp., priority 2011, dated 2015).
Where two headings read alike, the source gives them in different places.

Molecular target: T1, acetylcholine muscarinic M1 receptor (Homo sapiens, UniProt P11229)
T1 construct: expressed in transfected cells; host or cells: CHOnfat cells (CHO cells with an NFAT reporter) expressing hM1, kept under Geneticin selection
T1 sequence (P11229 1-460): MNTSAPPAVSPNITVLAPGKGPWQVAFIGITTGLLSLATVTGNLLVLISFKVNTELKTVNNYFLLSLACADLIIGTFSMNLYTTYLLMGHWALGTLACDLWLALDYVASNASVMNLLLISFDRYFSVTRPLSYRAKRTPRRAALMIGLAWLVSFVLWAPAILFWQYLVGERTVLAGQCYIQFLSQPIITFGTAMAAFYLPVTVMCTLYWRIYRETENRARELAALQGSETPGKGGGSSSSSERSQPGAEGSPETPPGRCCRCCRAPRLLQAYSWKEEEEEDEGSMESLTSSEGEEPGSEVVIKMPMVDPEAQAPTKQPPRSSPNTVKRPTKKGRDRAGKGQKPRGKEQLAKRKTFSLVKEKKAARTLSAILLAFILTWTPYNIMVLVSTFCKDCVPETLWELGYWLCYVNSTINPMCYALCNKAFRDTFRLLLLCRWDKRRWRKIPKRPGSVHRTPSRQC
Assay: muscarinic FLIPR assay: intracellular calcium in CHOnfat/hM1 cells, potentiation of EC20 acetylcholine
Assay type: cell-based
Settings: EC20 acetylcholine (3 nM final)
Experimental: The assay studies the effect of one or several concentrations of test compounds on basal or acetylcholine-stimulated Ca^2+ levels using FLIPR.
Compounds are prepared and subjected to a preincubation period of […]. Thereafter, a single EC20 concentration of acetylcholine is added to each well (3 nM final). The intracellular Ca^2+ level of each sample is measured and compared to an acetylcholine control to determine any modulatory activity.
Cells: CHOnfat/hM1, hM2, hM3 or hM4 cells are plated 24 hr before the assay at a density of 18,000 cells/well (100 μL) in a 384 well plate. CHOnfat/hM1 and CHOnfat/hM3 Growth Medium: 90% DMEM (Hi Glucose); 10% HI FBS; 2 mM L-glutamine; 0.1 mM NEAA; Pen-Strep; and 1 mg/ml Geneticin, are added. For M2Gqi5CHOnfat and M4Gqi5CHOnfat cells, an additional 600 ug/ml hygromycin is added.
Equipment: 384 well plate, 120 μl, addition plate; 96-well Whatman 2 ml Uniplate Incubator, 37° C., 5% CO2; Skatron EMBLA-384 Plate Washer; Multimek Pipetting System; Genesis Freedom 200 System; Mosquito System; Temo Nanolitre Pipetting System; and FLIPR^384 Fluorometric Imaging Plate Reader System are used.
Buffers. Assay Buffer: Hanks Balanced Salt Solution, with 20 mM Hepes, 2.5 mM Probenecid (Sigma P-8761) first dissolved in 1 N NaOH, 1% Bovine Serum Albumin (Sigma A-9647). Dye Loading Buffer: Assay Buffer plus 1% Fetal Bovine Serum and Fluo-4AM/Pluronic Acid Mixture. 2 mM Fluo-4AM ester stock in DMSO (Molecular Probes F-14202) Concentration of 2 μM in buffer for a final concentration of 1 μM in Assay. 20% Pluronic Acid Solution stock, with concentration of 0.04% in Buffer, 0.02% in Assay.
65 μL of 2 mM Fluo-4AM are mixed with 130 μL of 20% Pluronic Acid. The resulting solution and 650 μL FBS is added to the assay buffer for a total volume of 65 mL. Positive Controls: 4-Br-A23187: 10 mM in DMSO; final concentration 10 μM. Acetylcholine: 10 mM in water, working stock at both 20 μM and 30 μM in assay buffer, final concentration of 10 μM. This is used to check the maximum stimulation of the CHOK1/hM1 cells. 20 μM (2×) acetylcholine is added in the preincubation part of the assay, and the 30 μM (3×) stock is added in the second part. (EC20)Acetylcholine: 10 mM in water, working stock of 9 nM (3×), and final concentration in assay is 3 nM. This is used after the preincubation with test compounds. Addition of the EC20 Acetylcholine to each well with a test compound will ascertain any modulator activity. 24 wells contain 3 nM Acetylcholine alone as a control.
Determining Activity of Putative Compounds:
Screening Plate Compounds are titrated in 96-well plates (columns 2-11), 100% DMSO, started at a concentration of 15 mM (150× stock concentration), and 3-fold serial dilutions using Genesis Freedom200 System. Four 96-well plates are combined into a 384-well plate using Mosquito Nanolitre Pipetting System by transferring 1 μl of serial diluted compounds to each well, and 1 mM acetylcholine (100× stock concentration) were added as a control. Using Temo, 49 μl assay buffer is added to each well of the 384-well plate right before assay.
In a 96-well Whatman 2 ml Uniplate, 9 nM Acetylcholine (3×) is pipetted into wells corresponding to the screening compounds, and into control wells. The 30 μM acetylcholine control (3×) is added into control wells, and the 3× agonist plate is transferred into a 384 well plate.
Cells are washed three times with 100 μL of buffer, leaving […] of buffer in each well. Using Multimek, 30 μL of Dye Loading Buffer is added into each well and incubated at 37° C., 5% CO2 for up to one hr.
After 60 min, the cells are washed three times with 100 μL of buffer, leaving 30 μL of buffer in each well. The cell plate, screening plate, and agonist addition plates are placed on the platform in the FLIPR and the door closed. A signal test to check background fluorescence and basal fluorescence signal is performed. Laser intensity is adjusted if necessary.

[1] = Table 2, CHOnfat/hM1 cells, FLIPR, read-out: M1 Pot.
[2] = Table 1, CHOnfat/hM1 cells, FLIPR, read-out: M1 Pot.
[3] = Table 3, inflection point calculated from the FLIPR values, read-out: IP Value

Compound | EC50 [2] [nM] | EC50 [3] [nM] | further results
1-({8-[(1S,2S)-2-hydroxycyclohexyl]-7-oxo-8,9-dihydro-7H-pyrrolo[3,4-h]quinolin-5-yl}methyl)-4-(6-methoxypyridin-2-yl)piperidine-4-carbonitrile [Example 155] | – | – | EC50 [1]: 520 nM
1-({8-[(1S,2S)-2-hydroxycyclohexyl]-7-oxo-8,9-dihydro-7H-pyrrolo[3,4-h]quinolin-5-yl}methyl)-4-(6-methoxypyridin-2-yl)piperidine-4-carbonitrile [Example 156] | – | – | EC50 [1]: 57 nM
CC1c2c(cc(CN3CCC(C#N)(c4ccccn4)CC3)c3ccccc23)C(=O)N1[C@H]1CCCC[C@@H]1O (single isomer, unassigned) [Example 44] | 9.6 | – | –
CC1c2c(cc(CN3CCC(C#N)(c4ccccn4)CC3)c3ccccc23)C(=O)N1[C@H]1CCCC[C@@H]1O (single isomer, unassigned) [Example 45] | 272 | – | –
CC1c2c(cc(CN3CCC(F)(C#N)CC3)c3cccnc23)C(=O)N1C1CCCCC1O (single isomer, unassigned) [Example 118, 4-fluoro-1-{[8-(2-hydroxycyclohexyl)-9-methyl-7-oxo-8,9-dihydro-7H-pyrrolo[3,4-h]quinolin-5-yl]methyl}piperidine-4-carbonitrile] | – | – | EC50 [1]: 450 nM
CC1c2c(cc(CN3CCC(F)(C#N)CC3)c3cccnc23)C(=O)N1C1CCCCC1O (single isomer, unassigned) [Example 119, 4-fluoro-1-{[8-(2-hydroxycyclohexyl)-9-methyl-7-oxo-8,9-dihydro-7H-pyrrolo[3,4-h]quinolin-5-yl]methyl}piperidine-4-carbonitrile] | – | – | EC50 [1]: 44 nM
N#CC1(c2ccccn2)CCN(Cc2cc3c(c4ccccc24)CN([C@H]2CCCC[C@@H]2O)C3=O)CC1 [Example 1, 1-({2-[(1S,2S)-2-Hydroxycyclohexyl]-3-oxo-2,3-dihydro-1H-benzo[e]isoindol-5-yl}methyl)-4-(pyridine-2-yl)piperidine-4-carbonitrile] | – | 10 | –
O=C1c2cc(CN3CCC(F)(c4ccccn4)CC3)c3ccccc3c2CN1[C@H]1CCCC[C@@H]1O [Example 2, 5-{[4-Fluoro-4-(pyridine-2-yl)piperidine-1-yl]methyl}-2-[(1S,2S)-2-hydroxycyclohexyl]-1,2-dihydro-3H-benzo[e]isoindol-3-one] | – | 58 | –
CC1c2c(cc(CN3CCC(C#N)(c4ccccn4)CC3)c3ccccc23)C(=O)N1[C@H]1CCCC[C@@H]1O (stereo partly drawn) [Example 3, 1-({2-[(1S,2S)-2-Hydroxycyclohexyl]-1-methyl-3-oxo-2,3-dihydro-1H-benzo[e]isoindol-5-yl}methyl)-4-(pyridine-2-yl)piperidine-4-carbonitrile] | – | 19 | –
Cc1cccc(C2(C#N)CCN(Cc3cc4c(c5ccccc35)CN([C@H]3CCCC[C@@H]3O)C4=O)CC2)n1 [Example 4, 1-({2-[(1S,2S)-2-Hydroxycyclohexyl]-3-oxo-2,3-dihydro-1H-benzo[e]isoindol-5-yl}methyl)-4-(6-methylpyridin-2-yl)piperidine-4-carbonitrile] | – | 27 | –
CCc1cccc(C2(C#N)CCN(Cc3cc4c(c5ccccc35)CN([C@H]3CCCC[C@@H]3O)C4=O)CC2)n1 [Example 5, 4-(6-Ethylpyridin-2-yl)-1-({2-[(1S,2S)-hydroxycyclohexyl]-3-oxo-2,3-dihydro-1H-benzo[e]isoindol-5-yl}methyl)piperidine-4-carbonitrile] | – | 55 | –
COc1cccc(C2(C#N)CCN(Cc3cc4c(c5ccccc35)CN([C@H]3CCCC[C@@H]3O)C4=O)CC2)n1 [Example 6, 1-({2-[(1S,2S)-2-Hydroxycyclohexyl]-3-oxo-2,3-dihydro-1H-benzo[e]isoindol-5-yl}methyl)-4-(6-methoxypyridin-2-yl)piperidine-4-carbonitrile] | – | 65 | –
O=C1c2cc(CN3CCC(F)(F)CC3)c3cccnc3c2CN1[C@H]1CCOC[C@@H]1O [Example 7, 1,5-Anhydro-2,3-dideoxy-3-{5-[(4,4-difluoropiperidin-1-yl)methyl]-7-oxo-7,9-dihydro-8H-pyrrolo[3,4-h]quinolin-8-yl}-L-threo-pentitol] | – | 147 | –
O=C1c2cc(CN3CCC(F)(F)CC3)c3cccnc3c2CN1[C@H]1COCC[C@@H]1O [Example 8, 1,5-Anhydro-2,4-dideoxy-2-{5-[(4,4-difluoropiperidin-1-yl)methyl]-7-oxo-7,9-dihydro-8H-pyrrolo[3,4-h]quinolin-8-yl}-L-threo-pentitol] | – | 41 | –
C=CC1(F)CCN(Cc2cc3c(c4ncccc24)CN([C@H]2CCCC[C@@H]2O)C3=O)CC1 [Example 9, 5-[(4-Ethenyl-4-fluoropiperidin-1-yl)methyl]-8-[(1S,2S)-2-hydroxycyclohexyl]-8,9-dihydro-7H-pyrrolo[3,4-h]quinolin-7-one] | – | 420 | –
CN(C)C(=O)Oc1cccc(N2Cc3c(cc(CN4CCC(F)(F)CC4)c4cccnc34)C2=O)c1 [Example 10, 3-{5-[(4,4-Difluoropiperidin-1-yl)methyl]-7-oxo-7,9-dihydro-8H-pyrrolo[3,4-h]quinolin-8-yl}phenyl dimethylcarbamate] | – | – | EC50 (IP Value (nM), Table 3, inflection point calculated from the FLIPR values): 2260 nM

Further lines, with some results ahead:

EC50 [2] [nM] | Compound | EC50 [3] [nM] | further results
240 | O=C1c2cc(CN3C[C@@H](F)[C@H](F)C3)c3ccccc3c2CN1C1CCCCC1O (relative stereo) [Example 29, 5-{[trans-3,4-difluoropyrrolidin-1-yl]methyl}-2-(2-hydroxycyclohexyl)-1,2-dihydro-3H-benzo[e]isoindol-3-one] | – | –
4900 | O=C1c2cc(CN3CCCCC3)c3ccccc3c2CN1[C@H]1CCCC[C@@H]1O [Example 11] | – | –
1300 | CN1CCN(Cc2cc3c(c4ccccc24)CN([C@H]2CCCC[C@@H]2O)C3=O)CC1 [Example 12, 2-[(1S,2S)-2-hydroxycyclohexyl]-5-[(4-methylpiperazin-1-yl)methyl]-1,2-dihydro-3H-benzo[e]isoindol-3-one] | – | –
560 | CN1CCN(Cc2cc3c(c4ccccc24)CN([C@H]2CCCC[C@@H]2O)C3=O)CC1=O [Example 13, 2-[(1S,2S)-2-hydroxycyclohexyl]-5-[(4-methyl-3-oxopiperazin-1-yl)methyl]-1,2-dihydro-3H-benzo[e]isoindol-3-one] | – | –
2600 | CC(=O)N1CCN(Cc2cc3c(c4ccccc24)CN(C2CCCCC2O)C3=O)CC1 (stereo not drawn) [Example 14, 5-[(4-acetylpiperazin-1-yl)methyl]-2-(2-hydroxycyclohexyl)-1,2-dihydro-3H-benzo[e]isoindol-3-one] | – | –
